Values quoted from earlier work in US11230722B2, “Nutritional supplements and therapeutic compositions comprising (r)-3-hydroxybutyrate derivatives” (Oxford University Innovation Limited, priority 2003, dated 2022).

Test system: gastric enzymes

SMILES: C[C@@H]1CC(=O)O[C@H](C)CC(=O)O[C@H](C)CC(=O)O1 [triolide, cyclic trimer of (R)-3-hydroxybutyrate]
- absorption: only poorly absorbed
- hydrolysis by gastric enzymes: not efficiently hydrolyzed
